Key:
Assay type in all cases: cell-based, human
ATR cells [1] = test: dsDNA breaks in metaphase chromosomal preparations, ATR cells; settings: 2 h 1 mM β-cyano-l-alanine followed by 10 μM t-BOOH
Description: (§1) Cells: The human colon cancer cell line DLD1 cell line containing wild-type ATR (ATR cells) or the ATR-Seckel knock-in hypomorphic mutation (ATR-H cells) were a kind gift from Dr. Fred Bunz of the Department of Radiation Oncology and Molecular Radiation Sciences, The Johns Hopkins University School of Medicine. The cells were cultured in DMEM with 5% FBS, 1% penicillin/streptomycin.
Chromosomal preparation and analysis: One 100-mm tissue culture plate/treatment of logarithmically growing ATR and ATR-H cells at 50% confluence were treated with or without, 1 mM H2S inhibitor β-cyano-l-alanine for two hours, followed by a 15-minute treatment with 10 μM t-BOOH. Following this treatment, the cells were washed 3× with phosphate-buffered saline, the media replaced, and the cells cultured for 1 h. Colcemid (100 ng/ml) was then added for 4 h and the cells harvested by washing 2× in 1×PBS, followed by trypsinization and transference to a 15 ml tube. Two-ml of DMEM with 5% FBS was added/tube and the cells were pelleted 5 min at 500×g. The cells were re-suspended in 5 ml […] and incubated 15 min at 37° C. About 200 μl of fresh methanol: glacial acetic acid at 3:1 (Carnoy's fixative) was added, the cells gently vortexed, and pelleted for 5 min at 500×g. The supernatant was removed and 5 ml of Carnoy's fixative added with gentle vortexing. […]

ATR-pS435 in ATR-H cells = test: Western blot of ATR serine 435 phosphorylation, ATR-H cells
Description: as §1
(§2) Western blotting: To prepare whole cell lysates from ATR and ATR-H cells, the cells were grown in 6-well plates, the medium was removed, and 300 μl of SDS sample buffer (62.5 mM Tris-HCl (pH 6.8), 2% w/v SDS, 10% glycerol, 50 mM dithiothreitol, 0.1% w/v bromphenol blue) was added to each well. Following lysis in SDS sample buffer, lysates were harvested with cell scrapers and collected in Eppendorf tubes. The lysates were boiled, centrifuged, and frozen at −20° C. until gel electrophoresis was performed. The protein concentrations were measured by Bio-rad DC protein assay. Twenty […] of total protein supernatant extract was mixed with 2×SDS loading buffer according to protein concentration. Lysates separated by SDS-PAGE were transferred to polyvinylidene difluoride membranes, and membranes were blocked in 5% nonfat dry milk before the addition of primary antibodies. Densitometry was performed with ImageJ software version 1.45 s. All western blots were performed at least in triplicate.

ATR-H cells [2] = test: dsDNA breaks in metaphase chromosomal preparations, ATR-H cells
Description: as §1
Chromosomal preparation and analysis: One 100-mm tissue culture plate/treatment of logarithmically growing ATR and ATR-H cells at 50% confluence were treated with or without, 1 mM H2S inhibitor β-cyano-l-alanine for two hours, followed by a 15-minute treatment with 10 μM t-BOOH. Following this treatment, the cells were washed 3× with phosphate-buffered saline, the media replaced, and the cells cultured for 1 h. Colcemid (100 ng/ml) was then added for 4 h and the cells harvested by washing 2× in 1×PBS, followed by trypsinization and transference to a 15 ml tube. Two-ml of DMEM with 5% FBS was added/tube and the cells were pelleted 5 min at 500×g. The cells were re-suspended in 5 ml […] and incubated 15 min at 37° C. About 200 μl of fresh methanol: glacial acetic acid at 3:1 (Carnoy's fixative) was added, the cells gently vortexed, and pelleted for 5 min at 500×g. The supernatant was removed and 5 ml of Carnoy's fixative added with gentle vortexing. The cells were pelleted for 5 min at 500×g, the supernatant removed, and 5 ml of Carnoy's fixative was added with gentle vortexing. Chromosomal preparations were made by pelleting the preparations for 5 min at 500×g, removing the supernatant, dropping on slides, drying for 30 min at 90° C., Giemsa staining, washing, and cover-slipping. Each data point represents 5000 individual chromosomal observations preformed under oil immersion microscopy done in triplicate.

[3] = tested on: DLD1 cell line containing the ATR-Seckel knock-in hypomorphic mutation (ATR-H cells); test: Colony forming-efficiency assay, ATR-H cells
Description: as §1
(§3) Colony forming-efficiency assay: Colony forming-efficiency (CEFA) experiments were performed. In brief, exponentially growing cells were plated for 12 h at 2000 cells/100 mm tissue culture dish in 10 ml appropriate media. The cells were pretreated for 2 h with either an H2S inhibitor (β-cyano-1-alanine, 1 mM) or donor (diallyl trisulfide, 20 uM), washed 3× with 1× phospate buffered saline, the media replaced, and the cells were immediately treated with for 15 min with 50, 100, and 200 μM t-butyl hydroperoxide (t-BOOH). Following treatment, the cells were washed 3× with phosphate-buffered saline, the media replaced and the cells cultured for 11 days. The resulting colonies were fixed and stained by water: methanol addition (1:1) containing crystal violet (1 g/l). “Colonies” consisted of cell clusters containing greater than 50 cells when counted by dissecting microscopy.

ATR cells [4] = test: Free cellular H2S measurement by HPLC after MBB derivatization, ATR cells
Description: as §1
(§4) H2S measurements: Bioavailable sulfide levels were measured as previously reported. Levels of free sulfide (H2S) in ATR and ATR-H cells were measured by high performance liquid chromatography (HPLC) after derivatization with excess MBB as stable products sulfide-dibimane (SDB). Briefly, ATR and ATR-H cells were homogenized in Tris.HCl buffer [100 mM Tris.HCl (pH 9.5) and 0.1 mM diethylenetriaminepentaacetic acid (DTPA)]. Cell lysates were derivatized with MBB and then measured by Shimadzu Prominence 20 A equipment with RF-10AXL (excitation wavelength: […] and emission wavelength: […]) and an Eclipse XDB-C18 column (4.6×50 mm, 5 μm). Typical retention times of SDB were 16.5 min. H2S levels were calculated according to the standard SDB.

ATR-pS435 in ATR cells = test: Western blot of ATR serine 435 phosphorylation, ATR cells
Description: as §1, §2

[5] = tested on: DLD1 cell line containing wild-type ATR (ATR cells); test: Colony forming-efficiency assay, ATR wild-type cells; settings: 11 days; for sensitivity of colony formation to t-BOOH after H2S inhibitor pretreatment: 2 h 1 mM β-cyano-l-alanine, then 15 min 50, 100 or 200 μM t-BOOH
Description: as §1, §3

[6] = tested on: CHK1 serine-345 phosphorylation in ATR cells; test: Western blot of CHK1 serine 345 phosphorylation, ATR cells
Description: as §1, §2

[7] = tested on: CHK1 serine-345 phosphorylation in ATR-H cells; test: Western blot of CHK1 serine 345 phosphorylation, ATR-H cells; settings: 2 h 1 mM β-cyano-l-alanine with or without 15 min 10 μM t-BOOH
Description: as §1, §2

ATR-H cells [8] = test: Free cellular H2S measurement by HPLC after MBB derivatization, ATR-H cells
Description: as §1, §4

[9] = ATR wild-type cells, 2 h 1 mM β-cyano-l-alanine

**Q.** Which results are given for N#CC[C@H](N)C(=O)O [β-cyano-l-alanine]?
**A.** dsDNA breaks (ATR cells [1]): significantly increased dsDNA breaks; ATR-pS435 level (ATR-pS435 in ATR-H cells; 2 h 1 mM β-cyano-l-alanine): not affected by any treatment; dsDNA breaks (ATR-H cells [2]; 1 mM β-cyano-l-alanine alone): significantly increased dsDNA breaks; dsDNA breaks (ATR-H cells [2]; 2 h 1 mM β-cyano-l-alanine followed by 10 μM t-BOOH): significantly increased dsDNA breaks; colony formation, H2S inhibitor pretreatment with 200 μM t-BOOH versus 200 μM t-BOOH alone ([3]; 200 μM t-BOOH): not significantly different; colony formation, H2S inhibitor by itself ([3]; 2 h 1 mM β-cyano-l-alanine, no t-BOOH, 11 days): suppressed ATR-H cell colony formation; sensitivity of colony formation to t-BOOH after H2S inhibitor pretreatment ([3]; 2 h 1 mM β-cyano-l-alanine, then 15 min 50, 100 or 200 μM t-BOOH, 11 days, compared to ATR wild-type cells): significantly more sensitive to the same t-BOOH exposures; cellular free H2S concentration (ATR cells [4]; 2 h 1 mM β-cyano-l-alanine): significantly lowered; ATR-pS435 level (ATR-pS435 in ATR cells; [9]): increased ATR-pS435; increase of ATR-pS435 compared to untreated cell phosphorylation levels (ATR-pS435 in ATR cells; [9]): ~50%; sensitivity of colony formation to t-BOOH after H2S inhibitor pretreatment [5]: slightly increased the sensitivity of the ATR cells; sensitivity of colony formation to t-BOOH after H2S inhibitor pretreatment ([5]; listed as H2S inhibitor): only significantly potentiated t-BOOH toxicity at the two higher doses; CHK1 serine-345 phosphorylation after t-BOOH, with versus without H2S inhibitor pretreatment ([6]; ATR cells, 2 h 1 mM β-cyano-l-alanine, then 15 min 10 μM t-BOOH, harvest at 45 min): significantly increased; CHK1 serine-345 phosphorylation level changes [7]: failed to show significant CHK1 serine-345 phosphorylation level changes; cellular free H2S concentration (ATR-H cells [8]; 2 h 1 mM β-cyano-l-alanine): significantly lowered

**Q.** What does the source list for C=CCSSSCC=C [diallyl trisulfide]?
**A.** ATR-pS435 level (ATR-pS435 in ATR-H cells; 2 h 20 μM diallyl trisulfide): not affected by any treatment; colony formation, H2S donor pretreatment ([3]; 2 h 20 μM diallyl trisulfide, 11 days): significantly decreased; cellular free H2S concentration (ATR cells [4]; 2 h 20 μM diallyl trisulfide): suppressed; ATR-pS435 level (ATR-pS435 in ATR cells; ATR wild-type cells, 2 h 20 μM diallyl trisulfide): inhibited this phosphorylation; colony formation, H2S donor pretreatment ([5]; 2 h 20 μM diallyl trisulfide): significantly decreased; CHK1 serine-345 phosphorylation after t-BOOH, H2S donor pretreatment ([6]; ATR wild-type cells, H2S donor pretreatment, then t-BOOH): did not significantly alter

**Q.** What does the source list for CC(C)(C)OO [t-BOOH, t-butyl hydroperoxide]?
**A.** ATR-pS435 level (ATR-pS435 in ATR-H cells; 100 μM t-BOOH 15 min, then 45 min in media): not increased; dsDNA break formation (ATR-H cells [2]; 15 min 10 μM t-BOOH alone): significantly increased dsDNA break formation; colony formation suppression by t-BOOH ([3]; 15 min 50, 100 or 200 μM t-BOOH, 11 days): colony formation suppression was t-BOOH dose-dependent; induction of ATR-pS435 levels (ATR-pS435 in ATR cells; ATR wild type cells, 100 μM t-BOOH 15 min, then 45 min in media): ~50%; colony formation suppression by t-BOOH ([5]; 15 min 50, 100 or 200 μM t-BOOH): colony formation suppression was t-BOOH dose-dependent

**Q.** With Nc1nc(N)c(N=O)c(OCC2CCCCC2)n1 [NU6027] as the compound, how does the “cellular free H2S concentration” value (ATR cells [4]; 2 h 12 μM NU6027) read?
**A.** Its value is “significantly decreased”.

**Q.** And the “cellular free H2S concentration” value (ATR-H cells [8]; 2 h 12 μM NU6027)?
**A.** The value was “but not the ATR-H cells”.
